From ChEMBL document CHEMBL5291721, “A preclinical secondary pharmacology resource illuminates target-adverse drug reaction associations of marketed drugs” (Nat Commun, 2023)

How the values were obtained:
Histamine H1 receptor = Histamine H1 receptor (Homo sapiens, UniProt P35367); type: functional, cell-based
[1] = molecular target: T1, Peroxisome proliferator-activated receptor gamma (Homo sapiens, UniProt P37231); type: functional
T1 sequence (P37231 whole entry): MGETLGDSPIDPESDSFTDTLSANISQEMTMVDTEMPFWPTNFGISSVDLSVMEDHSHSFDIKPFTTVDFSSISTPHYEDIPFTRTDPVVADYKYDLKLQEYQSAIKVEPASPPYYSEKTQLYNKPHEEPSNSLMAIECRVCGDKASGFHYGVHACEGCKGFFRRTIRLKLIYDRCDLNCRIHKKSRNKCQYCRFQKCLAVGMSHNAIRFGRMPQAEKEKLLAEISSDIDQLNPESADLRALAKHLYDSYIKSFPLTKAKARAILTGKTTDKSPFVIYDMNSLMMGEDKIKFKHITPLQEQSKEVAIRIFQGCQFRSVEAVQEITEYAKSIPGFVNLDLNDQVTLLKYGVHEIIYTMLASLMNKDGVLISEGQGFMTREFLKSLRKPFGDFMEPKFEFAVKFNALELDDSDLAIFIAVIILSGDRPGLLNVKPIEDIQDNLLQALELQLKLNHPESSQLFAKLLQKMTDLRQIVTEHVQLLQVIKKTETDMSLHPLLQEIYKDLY

[2] = molecular target: 5-hydroxytryptamine receptor 5A (Homo sapiens, UniProt P47898)
Chain of 5-hydroxytryptamine receptor 5A (P47898 whole entry): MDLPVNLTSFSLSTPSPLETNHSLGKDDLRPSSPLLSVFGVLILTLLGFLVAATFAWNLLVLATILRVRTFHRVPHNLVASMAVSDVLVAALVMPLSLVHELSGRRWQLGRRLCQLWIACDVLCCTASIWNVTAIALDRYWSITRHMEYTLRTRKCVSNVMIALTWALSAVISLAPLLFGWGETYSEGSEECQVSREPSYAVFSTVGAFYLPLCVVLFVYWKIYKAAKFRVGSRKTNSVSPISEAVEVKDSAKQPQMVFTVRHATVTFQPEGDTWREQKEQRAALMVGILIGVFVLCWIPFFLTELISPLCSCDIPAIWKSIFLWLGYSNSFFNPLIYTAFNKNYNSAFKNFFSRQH

Substance-K receptor = molecular target: T2, Substance-K receptor (Homo sapiens, UniProt P21452)
T2 sequence (P21452 whole entry): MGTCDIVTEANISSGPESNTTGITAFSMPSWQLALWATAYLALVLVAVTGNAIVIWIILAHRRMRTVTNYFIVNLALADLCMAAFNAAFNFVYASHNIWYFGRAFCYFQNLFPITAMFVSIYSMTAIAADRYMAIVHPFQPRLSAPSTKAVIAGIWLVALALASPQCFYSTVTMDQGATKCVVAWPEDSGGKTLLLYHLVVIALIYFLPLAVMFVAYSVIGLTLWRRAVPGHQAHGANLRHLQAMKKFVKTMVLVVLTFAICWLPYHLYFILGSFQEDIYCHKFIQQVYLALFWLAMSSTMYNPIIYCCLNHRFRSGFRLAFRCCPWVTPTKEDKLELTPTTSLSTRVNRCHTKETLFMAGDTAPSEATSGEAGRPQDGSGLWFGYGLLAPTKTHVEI

D(1B) dopamine receptor = D(1B) dopamine receptor (Homo sapiens, UniProt P21918)
Chain of D(1B) dopamine receptor (P21918 whole entry): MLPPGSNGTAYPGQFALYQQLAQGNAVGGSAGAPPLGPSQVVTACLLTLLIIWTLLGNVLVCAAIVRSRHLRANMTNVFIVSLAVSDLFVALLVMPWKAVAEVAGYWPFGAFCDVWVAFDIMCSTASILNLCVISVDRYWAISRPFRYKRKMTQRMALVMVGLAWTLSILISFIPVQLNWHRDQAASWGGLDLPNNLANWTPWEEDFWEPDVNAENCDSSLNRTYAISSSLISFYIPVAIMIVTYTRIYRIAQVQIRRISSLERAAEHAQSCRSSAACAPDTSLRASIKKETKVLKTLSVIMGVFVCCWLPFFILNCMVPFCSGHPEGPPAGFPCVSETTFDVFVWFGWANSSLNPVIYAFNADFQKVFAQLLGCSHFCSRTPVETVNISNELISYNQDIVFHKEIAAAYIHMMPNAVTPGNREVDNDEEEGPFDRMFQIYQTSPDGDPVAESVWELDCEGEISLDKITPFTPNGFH

[3] = molecular target: Rod cGMP-specific 3',5'-cyclic phosphodiesterase subunit alpha (Homo sapiens, UniProt P16499); type: functional
Chain of Rod cGMP-specific 3',5'-cyclic phosphodiesterase subunit alpha (P16499 whole entry): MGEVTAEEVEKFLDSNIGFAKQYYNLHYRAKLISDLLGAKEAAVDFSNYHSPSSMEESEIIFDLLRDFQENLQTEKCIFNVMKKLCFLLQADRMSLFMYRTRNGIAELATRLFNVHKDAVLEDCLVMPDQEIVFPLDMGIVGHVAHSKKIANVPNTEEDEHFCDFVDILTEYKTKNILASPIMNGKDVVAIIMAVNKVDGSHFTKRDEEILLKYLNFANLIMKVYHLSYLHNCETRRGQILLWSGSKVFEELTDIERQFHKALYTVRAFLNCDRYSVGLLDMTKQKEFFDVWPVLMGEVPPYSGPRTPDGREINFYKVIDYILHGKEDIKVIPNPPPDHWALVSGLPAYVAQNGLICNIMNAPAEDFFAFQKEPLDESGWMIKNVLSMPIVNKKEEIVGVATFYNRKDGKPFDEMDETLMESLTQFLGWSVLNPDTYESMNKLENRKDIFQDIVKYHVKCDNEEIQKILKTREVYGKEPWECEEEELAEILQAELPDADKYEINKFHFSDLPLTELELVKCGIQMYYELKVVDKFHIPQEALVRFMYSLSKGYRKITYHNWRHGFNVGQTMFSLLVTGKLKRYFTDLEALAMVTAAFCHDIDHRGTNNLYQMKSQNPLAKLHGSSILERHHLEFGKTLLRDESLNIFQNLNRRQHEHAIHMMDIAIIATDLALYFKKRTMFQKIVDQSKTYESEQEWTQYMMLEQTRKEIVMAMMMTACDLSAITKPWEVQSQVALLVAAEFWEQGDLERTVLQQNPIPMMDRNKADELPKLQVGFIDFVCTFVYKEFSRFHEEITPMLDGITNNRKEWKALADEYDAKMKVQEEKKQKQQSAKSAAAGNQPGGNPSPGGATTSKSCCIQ

[4] = molecular target: T3, Prostaglandin G/H synthase 1 (Rattus norvegicus, UniProt Q63921); type: functional
T3 sequence (Q63921 whole entry): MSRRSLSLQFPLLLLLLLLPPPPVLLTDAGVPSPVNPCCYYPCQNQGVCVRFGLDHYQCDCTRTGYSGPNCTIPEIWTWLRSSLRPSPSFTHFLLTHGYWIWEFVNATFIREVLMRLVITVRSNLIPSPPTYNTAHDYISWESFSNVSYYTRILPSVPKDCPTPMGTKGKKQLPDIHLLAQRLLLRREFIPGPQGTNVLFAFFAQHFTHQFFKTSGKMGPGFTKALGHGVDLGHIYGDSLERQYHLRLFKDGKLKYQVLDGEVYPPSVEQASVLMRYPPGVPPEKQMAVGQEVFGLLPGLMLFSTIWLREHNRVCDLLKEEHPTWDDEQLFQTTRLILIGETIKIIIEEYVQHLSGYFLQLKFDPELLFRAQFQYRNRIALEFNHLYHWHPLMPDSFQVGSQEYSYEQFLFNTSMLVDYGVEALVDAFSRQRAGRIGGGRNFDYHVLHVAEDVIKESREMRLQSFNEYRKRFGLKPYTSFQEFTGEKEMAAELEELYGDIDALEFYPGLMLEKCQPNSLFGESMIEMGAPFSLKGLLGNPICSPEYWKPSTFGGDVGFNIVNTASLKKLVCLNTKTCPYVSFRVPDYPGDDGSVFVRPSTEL

[5] = molecular target: Hydroxycarboxylic acid receptor 2 (Homo sapiens, UniProt Q8TDS4)
Chain of Hydroxycarboxylic acid receptor 2 (Q8TDS4 whole entry): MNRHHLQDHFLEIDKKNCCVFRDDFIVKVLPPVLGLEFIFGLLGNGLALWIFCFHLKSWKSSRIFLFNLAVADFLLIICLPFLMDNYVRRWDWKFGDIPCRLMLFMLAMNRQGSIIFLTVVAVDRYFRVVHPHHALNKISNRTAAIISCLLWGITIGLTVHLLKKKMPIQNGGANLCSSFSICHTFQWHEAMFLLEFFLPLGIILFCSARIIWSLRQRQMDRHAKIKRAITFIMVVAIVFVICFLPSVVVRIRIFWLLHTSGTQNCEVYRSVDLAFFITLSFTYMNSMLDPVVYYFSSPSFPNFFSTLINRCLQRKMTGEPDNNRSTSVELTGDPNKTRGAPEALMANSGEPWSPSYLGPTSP

[6] = molecular target: Synaptic vesicular amine transporter (Rattus norvegicus, UniProt Q01827); type: functional
Chain of Synaptic vesicular amine transporter (Q01827 whole entry): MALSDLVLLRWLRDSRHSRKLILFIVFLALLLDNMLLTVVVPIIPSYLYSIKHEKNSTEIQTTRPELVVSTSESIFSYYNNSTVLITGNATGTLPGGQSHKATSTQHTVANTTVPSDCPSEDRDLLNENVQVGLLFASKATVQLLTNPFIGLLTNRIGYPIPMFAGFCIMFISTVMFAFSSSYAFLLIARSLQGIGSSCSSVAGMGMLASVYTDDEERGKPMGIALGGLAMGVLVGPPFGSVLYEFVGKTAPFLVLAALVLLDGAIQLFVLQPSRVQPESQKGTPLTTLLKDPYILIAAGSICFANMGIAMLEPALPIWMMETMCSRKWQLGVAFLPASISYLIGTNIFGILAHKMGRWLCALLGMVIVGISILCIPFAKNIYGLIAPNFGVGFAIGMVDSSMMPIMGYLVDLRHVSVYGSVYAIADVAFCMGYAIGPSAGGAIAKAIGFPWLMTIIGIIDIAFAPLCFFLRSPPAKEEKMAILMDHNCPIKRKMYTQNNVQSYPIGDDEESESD

D(1A) dopamine receptor [7] = molecular target: T4, D(1A) dopamine receptor (Homo sapiens, UniProt P21728)
T4 sequence (P21728 whole entry): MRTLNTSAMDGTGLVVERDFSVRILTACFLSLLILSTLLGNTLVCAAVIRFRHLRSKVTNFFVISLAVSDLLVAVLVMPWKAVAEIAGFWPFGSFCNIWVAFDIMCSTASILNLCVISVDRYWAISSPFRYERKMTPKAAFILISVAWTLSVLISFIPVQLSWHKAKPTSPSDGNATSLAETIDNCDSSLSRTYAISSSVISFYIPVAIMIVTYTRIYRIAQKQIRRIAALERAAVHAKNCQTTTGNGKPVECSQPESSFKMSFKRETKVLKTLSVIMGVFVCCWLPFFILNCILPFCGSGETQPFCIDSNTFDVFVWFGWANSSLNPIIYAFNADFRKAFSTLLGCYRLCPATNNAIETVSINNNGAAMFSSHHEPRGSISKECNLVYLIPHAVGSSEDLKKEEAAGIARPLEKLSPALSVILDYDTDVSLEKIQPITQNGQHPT

D(1A) dopamine receptor [8] = molecular target: T4, D(1A) dopamine receptor; type: functional, cell-based
[9] = molecular target: Epidermal growth factor receptor (Homo sapiens, UniProt P00533); type: functional
Chain of Epidermal growth factor receptor (P00533 whole entry): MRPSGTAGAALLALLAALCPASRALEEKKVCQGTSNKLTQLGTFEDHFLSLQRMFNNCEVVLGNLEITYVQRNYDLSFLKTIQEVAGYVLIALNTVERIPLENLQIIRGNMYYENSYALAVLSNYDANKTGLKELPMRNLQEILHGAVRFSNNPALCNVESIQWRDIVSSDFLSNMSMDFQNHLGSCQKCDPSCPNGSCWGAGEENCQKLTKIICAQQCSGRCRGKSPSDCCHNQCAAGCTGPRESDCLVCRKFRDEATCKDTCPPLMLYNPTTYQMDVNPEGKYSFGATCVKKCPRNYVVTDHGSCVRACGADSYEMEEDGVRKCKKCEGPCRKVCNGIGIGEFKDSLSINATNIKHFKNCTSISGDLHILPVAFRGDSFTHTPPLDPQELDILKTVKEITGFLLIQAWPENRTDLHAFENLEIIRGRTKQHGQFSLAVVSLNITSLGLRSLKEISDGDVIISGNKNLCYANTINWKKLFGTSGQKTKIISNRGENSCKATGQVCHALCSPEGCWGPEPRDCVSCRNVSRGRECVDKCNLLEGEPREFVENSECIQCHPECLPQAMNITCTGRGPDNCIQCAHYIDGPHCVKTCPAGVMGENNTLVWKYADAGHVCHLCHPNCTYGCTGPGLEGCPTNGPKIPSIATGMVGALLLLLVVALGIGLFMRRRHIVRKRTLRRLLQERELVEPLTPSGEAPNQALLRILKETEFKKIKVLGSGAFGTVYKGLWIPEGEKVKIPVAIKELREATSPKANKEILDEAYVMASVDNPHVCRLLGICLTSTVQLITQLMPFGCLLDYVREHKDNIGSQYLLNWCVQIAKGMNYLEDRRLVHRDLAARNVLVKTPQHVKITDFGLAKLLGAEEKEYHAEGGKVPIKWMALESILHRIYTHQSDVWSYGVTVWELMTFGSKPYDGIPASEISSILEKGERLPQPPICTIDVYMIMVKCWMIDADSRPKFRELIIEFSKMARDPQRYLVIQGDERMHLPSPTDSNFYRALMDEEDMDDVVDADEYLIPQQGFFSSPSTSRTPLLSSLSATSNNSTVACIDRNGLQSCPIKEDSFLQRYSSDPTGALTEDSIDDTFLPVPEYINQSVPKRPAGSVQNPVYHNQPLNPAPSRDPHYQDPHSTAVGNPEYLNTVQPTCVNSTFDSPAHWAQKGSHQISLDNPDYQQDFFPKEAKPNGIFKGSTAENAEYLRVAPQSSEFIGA

Estrogen receptor [10] = molecular target: T5, Estrogen receptor (Homo sapiens, UniProt P03372); type: functional
T5 sequence (P03372 whole entry): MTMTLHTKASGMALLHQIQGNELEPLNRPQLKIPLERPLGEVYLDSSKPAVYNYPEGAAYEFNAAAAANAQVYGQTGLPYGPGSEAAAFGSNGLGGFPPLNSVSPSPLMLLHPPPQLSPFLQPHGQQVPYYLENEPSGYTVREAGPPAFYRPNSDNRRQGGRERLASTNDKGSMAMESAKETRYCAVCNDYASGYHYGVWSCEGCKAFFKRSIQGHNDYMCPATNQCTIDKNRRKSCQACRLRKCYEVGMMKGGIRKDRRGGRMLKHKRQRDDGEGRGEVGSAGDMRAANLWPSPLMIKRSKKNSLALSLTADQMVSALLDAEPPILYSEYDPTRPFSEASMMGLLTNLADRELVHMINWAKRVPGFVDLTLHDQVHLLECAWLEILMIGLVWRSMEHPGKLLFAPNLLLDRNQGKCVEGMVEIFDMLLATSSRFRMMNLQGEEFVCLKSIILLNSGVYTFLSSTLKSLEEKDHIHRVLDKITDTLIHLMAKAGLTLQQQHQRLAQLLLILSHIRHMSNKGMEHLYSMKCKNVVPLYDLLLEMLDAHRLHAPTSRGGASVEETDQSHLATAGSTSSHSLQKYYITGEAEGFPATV

Estrogen receptor [11] = molecular target: T5, Estrogen receptor; type: functional; remark: listed apart in the source
Note: assay procedure not described here.

Chain of Histamine H1 receptor (P35367 whole entry): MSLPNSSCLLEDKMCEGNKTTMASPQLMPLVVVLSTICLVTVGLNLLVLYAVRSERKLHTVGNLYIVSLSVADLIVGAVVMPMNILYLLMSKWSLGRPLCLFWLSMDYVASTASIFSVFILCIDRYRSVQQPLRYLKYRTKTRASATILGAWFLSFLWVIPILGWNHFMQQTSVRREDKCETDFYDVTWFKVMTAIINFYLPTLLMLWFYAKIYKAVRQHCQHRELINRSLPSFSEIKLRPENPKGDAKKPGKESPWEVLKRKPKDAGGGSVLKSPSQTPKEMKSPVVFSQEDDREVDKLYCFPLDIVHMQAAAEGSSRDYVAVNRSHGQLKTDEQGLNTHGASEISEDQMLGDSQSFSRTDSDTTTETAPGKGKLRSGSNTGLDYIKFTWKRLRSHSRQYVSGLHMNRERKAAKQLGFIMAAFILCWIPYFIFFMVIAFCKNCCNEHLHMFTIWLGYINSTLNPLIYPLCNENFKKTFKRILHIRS

CN(C)C/C=C/C(=O)Nc1cc2c(Nc3ccc(F)c(Cl)c3)ncnc2cc1O[C@H]1CCOC1 [AFATINIB]
AC50 (Histamine H1 receptor): > 30 µM
AC50 [1]: > 30 µM

O=C(/C=C/c1cccc(S(=O)(=O)Nc2ccccc2)c1)NO [BELINOSTAT]
AC50 [2]: > 10 µM
AC50 (Substance-K receptor): > 10 µM
AC50 (D(1B) dopamine receptor): > 10 µM
AC50 [3]: > 10 µM

CC(C)(Oc1ccc(CCNC(=O)c2ccc(Cl)cc2)cc1)C(=O)O [BEZAFIBRATE]
AC50 [1]: > 30 µM

CC(O)(CS(=O)(=O)c1ccc(F)cc1)C(=O)Nc1ccc(C#N)c(C(F)(F)F)c1 (centres undefined) [BICALUTAMIDE]
AC50 [4]: > 30 µM

O=C(O)COCCN1CCN(C(c2ccccc2)c2ccc(Cl)cc2)CC1 (centres undefined) [CETIRIZINE]
AC50 [5]: > 10 µM

CC(=O)O[C@]1(C(C)=O)CC[C@H]2[C@@H]3C=C(Cl)C4=CC(=O)[C@@H]5C[C@@H]5[C@]4(C)[C@H]3CC[C@@]21C [CYPROTERONE ACETATE]
AC50 [4]: > 30 µM

CN[C@]1(c2ccccc2Cl)CCCCC1=O [ESKETAMINE]
AC50 [6]: > 30 µM

C[C@@H]1C[C@H]2[C@@H]3C[C@H](F)C4=CC(=O)C=C[C@]4(C)[C@@]3(F)[C@@H](O)C[C@]2(C)[C@@]1(OC(=O)c1ccco1)C(=O)SCF [FLUTICASONE FUROATE]
AC50 (Substance-K receptor): > 10 µM

CNCCc1ccc(OC(=O)C(C)C)c(OC(=O)C(C)C)c1 [IBOPAMINE]
AC50 (D(1A) dopamine receptor [7]): > 30 µM
AC50 (D(1A) dopamine receptor [8]): > 30 µM

CN(C)CCCN1c2ccccc2CCc2ccccc21 [IMIPRAMINE]
AC50 [2]: 2.26 µM
AC50 (Substance-K receptor): > 10 µM
AC50 (D(1B) dopamine receptor): 8.33 µM
AC50 [6]: 11.4 µM
AC50 [3]: > 10 µM

OC[C@H]1O[C@@H](n2cnc3c2NC=NC[C@H]3O)C[C@@H]1O [PENTOSTATIN]
AC50 (Histamine H1 receptor): > 30 µM
AC50 [1]: > 30 µM

CC(C)c1cccc(C(C)C)c1O [PROPOFOL]
AC50 [9]: > 30 µM
AC50 [1]: > 30 µM
AC50 (Estrogen receptor [10]): > 30 µM
AC50 (Estrogen receptor [11]): > 30 µM
AC50 (D(1A) dopamine receptor [8]): > 30 µM

CN[C@@H](C)[C@@H](O)c1ccccc1 [PSEUDOEPHEDRINE]
AC50 [5]: > 10 µM

O=C1OC(OC(=O)c2cccnc2Nc2cccc(C(F)(F)F)c2)c2ccccc21 (centres undefined) [TALNIFLUMATE]
AC50 (Histamine H1 receptor): > 30 µM

O=S1(=O)CCN(CN2CCS(=O)(=O)NC2)CN1 [TAUROLIDINE]
AC50 (Histamine H1 receptor): > 30 µM
